Laboratory results from patent US12213482B2, “Fungicide enhancers effective for treating plants infected with fungal pathogens” (Board of Regents, The University of Texas System, priority 2015, dated 2025).

What was measured:
Type in all cases: cell-based
Botrytis cinerea = test: Antifungal susceptibility disk test, fungicide disk plus apyrase inhibitor in plate; conditions: inhibitor 65 μM, 30° C., 12 days; for inhibitory effect on the growth of B. cinerea compared to myclobutanil alone: combined with myclobutanil (53.6 mM) disk, FIG. 2B; for inhibitory effect on the growth of B. cinerea compared to propiconazole alone: combined with propiconazole (418 mM) disk, FIG. 2C
Protocol: (§1) 2A. Copper Octanoate, 2B. Propiconazole, and 2C. Myclobutanil against the pathogenic fungi Botrytis cinerea. […] The equivalent volume of dimethylsulphoxide (DMSO) was added as a control. The studies were repeated two times with similar results. Error bars indicate standard deviations (n=5). The significances of the potency of fungicides are indicated: *** (Student's t-test, P<0.001); ** (Student's t-test, P<0.01) or *(Student's t-test, P<0.05). The plant pathogenic fungal strains Botrytis cinerea, Colletotrichum graminicola, Fusarium oxysporum, Sclerotiana sclerotiorum and Verticillium dahliae were obtained from the Institute for Plant Genomics & Biotechnology, Texas A & M University, USA Potato dextrose agar (PDA, Sigma-Aldrich) was routinely used for the growth of different pathogenic fungal strain. Ectophosphatase inhibitors NGXT191 (AI.1), AI.10, NGXT1913 (AI.13), and AI. 15 were used dal this study. The fungicides copper octanoate (C16H30CuO4), myclobutanil (C15H17ClN4) and propiconazole (C15H17Cl2N3O2) were used. The concentrations of these compounds used were copper octanoate (285 mM), myclobutanil (53.6 mM) and propiconazole (418 mM). Standard antifungal susceptibility disk tests were performed to determine any potentiating effect of ectophosphatase inhibitors on the growth of pathogenic fungus. The pathogenic fungus wild-type strains were plated on PDA medium with paper-disks containing, fungicides at the center of the plate. […] Plates were incubated at 30° C. for 7-days (C. graminicola and S. sclerotiorum) or 12-days (B. cinerea, F. oxysporum and V. dahliae), depending on the growth rate of the fungi. Plates were photographed, and the zone of fungal growth inhibition was measured by using IMAGE J™ software (NIH, USA). All the tests were performed with 5 replicates. The studies were performed two times. Results were analyzed for significance using Student T-tests.

[1] = test system: Fusarium oxysporum f.sp Cubense; test: as above; conditions: inhibitor 65 μM, 30° C., 12 days; for inhibitory effect on the growth of F. oxysporum compared to copper octanoate alone: combined with copper octanoate (285 mM) disk, FIG. 4A
Protocol: as §1, with “Copper” for “2A. Copper”, “Octanoate, 4B.” for “Octanoate, 2B.”, “and 4C.” for “and 2C.”, “fungi Fusarium oxysporum.” for “fungi Botrytis cinerea.”, “P<0.001); **(Student's” for “P<0.001); ** (Student's”

Sclerotiana sclerotiorum = test: as above; conditions: inhibitor 65 μM, 30° C., 7 days; for inhibitory effect on the growth of Sclerotiana sclerotiorum compared to copper octanoate alone: combined with copper octanoate (285 mM) disk, FIG. 5A; for inhibitory effect on growth of Sclerotiana sclerotiorum compared to myclobutanil alone: combined with myclobutanil (53.6 mM) disk, FIG. 5B; for inhibitory effect on the growth of Sclerotiana sclerotiorum compared to propiconazole alone: combined with propiconazole (418 mM) disk, FIG. 5C
Protocol: The equivalent volume of dimethylsulphoxide (DMSO) was added as a control. The studies were repeated two times with similar results. Error bars indicate standard deviations (n=5). The significances of the potency of fungicides are indicated: *** (Student's t-test, P<0.001); **(Student's t-test, P<0.01) or *(Student's t-test, P<0.05). The plant pathogenic fungal strains Botrytis cinerea, Colletotrichum graminicola, Fusarium oxysporum, Sclerotiana sclerotiorum and Verticillium dahliae were obtained from the Institute for Plant Genomics & Biotechnology, Texas A & M University, USA Potato dextrose agar (PDA, Sigma-Aldrich) was routinely used for the growth of different pathogenic fungal strain. Ectophosphatase inhibitors NGXT191 (AI.1), AI.10, NGXT1913 (AI.13), and AI. 15 were used dal this study. The fungicides copper octanoate (C16H30CuO4), myclobutanil (C15H17ClN4) and propiconazole (C15H17Cl2N3O2) were used. The concentrations of these compounds used were copper octanoate (285 mM), myclobutanil (53.6 mM) and propiconazole (418 mM). Standard antifungal susceptibility disk tests were performed to determine any potentiating effect of ectophosphatase inhibitors on the growth of pathogenic fungus. The pathogenic fungus wild-type strains were plated on PDA medium with paper-disks containing, fungicides at the center of the plate. […] Plates were incubated at 30° C. for 7-days (C. graminicola and S. sclerotiorum) or 12-days (B. cinerea, F. oxysporum and V. dahliae), depending on the growth rate of the fungi. Plates were photographed, and the zone of fungal growth inhibition was measured by using IMAGE J™ software (NIH, USA). All the tests were performed with 5 replicates. The studies were performed two times. Results were analyzed for significance using Student T-tests.

plant pathogenic fungi = test: Fungal plate assays, apyrase inhibitors tested alone; conditions: apyrase inhibitor alone, no fungicide
Protocol: Standard antifungal susceptibility disk tests were performed to determine any potentiating effect of ectophosphatase inhibitors on the growth of pathogenic fungus. The pathogenic fungus wild-type strains were plated on PDA medium with paper-disks containing, fungicides at the center of the plate. […] Plates were incubated at 30° C. for 7-days (C. graminicola and S. sclerotiorum) or 12-days (B. cinerea, F. oxysporum and V. dahliae), depending on the growth rate of the fungi. Plates were photographed, and the zone of fungal growth inhibition was measured by using IMAGE J™ software (NIH, USA). All the tests were performed with 5 replicates. The studies were performed two times. Results were analyzed for significance using Student T-tests.

Compound | inhibitory effect on the growth of B. cinerea compared to myclobutanil alone (Botrytis cinerea) | inhibitory effect on the growth of B. cinerea compared to propiconazole alone (Botrytis cinerea) | inhibitory effect on the growth of F. oxysporum compared to copper octanoate alone [1] | inhibitory effect on the growth of Sclerotiana sclerotiorum compared to copper octanoate alone (Sclerotiana sclerotiorum) | inhibitory effect on growth of Sclerotiana sclerotiorum compared to myclobutanil alone (Sclerotiana sclerotiorum) | inhibitory effect on the growth of Sclerotiana sclerotiorum compared to propiconazole alone (Sclerotiana sclerotiorum) | fungicidal activity when tested alone (plant pathogenic fungi) | inhibitory effect on the growth of F. oxysporum compared to myclobutanil alone ([1]; combined with myclobutanil (53.6 mM) disk, FIG. 4B) | inhibitory effect on the growth of F. oxysporum compared to propiconazole alone ([1]; combined with propiconazole (418 mM) disk, FIG. 4C)
Cc1cccc(NS(=O)(=O)c2ccc(-c3ccccc3)cc2)c1 [AI.1, N-(m-tolyl)-[1,1′-biphenyl]-4-sulfonamide] | significantly greater inhibitory effect | greater inhibitory effect | significantly greater inhibitory effect | significantly greater inhibitory effect | significantly greater inhibitory effect | significantly greater inhibitory effect | no fungicidal activity was detected | – | –
CCCCCCCSC(=O)c1cc2ccccc2oc1=O [AI.10, S-heptyl 2-oxo-2H-chromene-3-carbothioate] | – | greater inhibitory effect | – | significantly greater inhibitory effect | significantly greater inhibitory effect | significantly greater inhibitory effect | no fungicidal activity was detected | significantly greater inhibitory effect | significantly greater inhibitory effect
O=C(Nc1cccc([N+](=O)[O-])c1)c1cccc(S(=O)(=O)Nc2ccc(Br)cc2)c1 [AI.13, 3-(N-(4-bromophenyl)sulfamoyl)-N-(3-nitrophenyl)benzamide] | significantly greater inhibitory effect | – | significantly greater inhibitory effect | significantly greater inhibitory effect | significantly greater inhibitory effect | significantly greater inhibitory effect | no fungicidal activity was detected | – | –
C/C(=N\NC(=O)c1cccc(C)c1)c1ccc2ccccc2c1 [AI.15, (E)-3-methyl-N′-(1-(naphthalen-2-yl)ethylidene)benzohydrazide] | significantly greater inhibitory effect | greater inhibitory effect | – | significantly greater inhibitory effect | significantly greater inhibitory effect | significantly greater inhibitory effect | no fungicidal activity was detected | – | –
